From patent US10408783B2, “Electrochemical methods and compounds for the detection of enzymes” (GEORGIA STATE UNIVERSITY RESEARCH FOUNDATION, INC., priority 2014, dated 2019)

Key:
H3N2 virus [1] = assay: Hydrolysis of the probe by intact influenza virus followed by mass spectrum; type: biochemical; settings: pH 5.68, 37° C.
H1N1 virus [2] = assay: Hydrolysis of sialylglucose by intact influenza virus, amperometric glucose measurement; type: biochemical; settings: for current compared with glucose standard solution: H1N1 virus
H1N1 virus [3] = assay: Hydrolysis of the probe by intact influenza virus followed by mass spectrum; type: biochemical; settings: pH 5.68, 37° C.
influenza NA = assay: Hydrolysis of the probe by influenza NA followed by mass spectroscopy; type: biochemical, influenza virus
H5N1 NA = type: biochemical, influenza virus; settings: H5N1 NA overnight
H3N2 NA = type: biochemical, influenza virus; settings: H3N2 NA overnight
H3N2 virus [4] = assay: Hydrolysis of sialylglucose by intact influenza virus, amperometric glucose measurement; type: biochemical; settings: H3N2 virus overnight
β-Galactosidase = settings: substrate incubated with β-Galactosidase
α-Mannosidase = type: biochemical; settings: substrate incubated with α-Mannosidase
[5] = test system: β-N-Acetylglucosaminidase; type: biochemical; settings: substrate incubated with β-N-Acetylglucosaminidase
α-L-Fucosidase = type: biochemical; settings: substrate incubated with α-L-Fucosidase
β-Glucuronidase = settings: substrate incubated with β-Glucuronidase
[6] = H1N1 virus 1 h, 1 mM substrate, pH 5.68, 37° C.

## CC(=O)N[C@H]1[C@H]([C@H](O)[C@H](O)CO)O[C@@](OC[C@H]2O[C@H](O)[C@H](O)[C@@H](O)[C@@H]2O)(C(=O)O)C[C@@H]1O [sialylglucose, 5-acetamido-3,5-dideoxy-D-glycero-α-D-galacto-non-2-ulopyranosylonate-(2→6) α-D-glucopyranoside]
H3N2 virus [1]
  hydrolysis by intact influenza virus (mass spectrum): complete hydrolysis
H1N1 virus [2]; [6]
  Calculated Glucose Concentration: 116.2 µM
  Current: 1.262E−07 A
H1N1 virus [2]; H1N1 virus 5 h
  Calculated Glucose Concentration: 126.6 µM
  Current: 1.366E−07 A
H1N1 virus [2]; H1N1 virus overnight
  Calculated Glucose Concentration: 50.66 µM
  Current: 6.066E−08 A
  current compared with 1 h and 5 h samples: significantly lower current
H1N1 virus [2]; hydrolysis stopped at 1 h
  current compared with glucose standard solution: ~100 µM
H1N1 virus [2]; hydrolysis stopped at 5 h
  current compared with glucose standard solution: ~100 µM
H1N1 virus [3]
  hydrolysis by intact influenza virus (mass spectrum): complete hydrolysis
Influenza NA; pH 5.68, 37° C., overnight
  hydrolysis of the probe by NA (mass spectrum): substrate peak could no longer be observed
Influenza NA; pH 7.40, room temperature, overnight incubation
  hydrolysis of the probe by NA (mass spectrum): incomplete hydrolysis
H5N1 NA
  Calculated Glucose Concentration: 66.47 µM
  Current: 7.647E−08 A
H3N2 NA
  Calculated Glucose Concentration: 102.3 µM
  Current: 1.123E−07 A
H3N2 virus [4]
  Calculated Glucose Concentration: 76.09 µM
  Current: 8.609E−08 A

## OCC1O[C@@H](OCc2ccc(O[C@H]3OC(CO)[C@@H](O)[C@H](O)C3O)cc2)C(O)[C@@H](O)[C@@H]1O (some centres unmarked) [Substrate 20]
β-Galactosidase
  i, value of electrochemical assay: 10.2 ± 0.6 10^−8 A
α-Mannosidase
  i, value of electrochemical assay: 81.0 ± 1.8 10^−8 A

## CC(=O)NC1[C@H](Oc2ccc(CO[C@@H]3OC(CO)[C@@H](O)[C@H](O)C3O)cc2)OC(CO)[C@@H](O)[C@@H]1O (some centres unmarked) [Substrate 23]
[5]
  i, value of electrochemical assay: 28.5 ± 4.0 10^−8 A

## CC1O[C@@H](Oc2ccc(CO[C@@H]3OC(CO)[C@@H](O)[C@H](O)C3O)cc2)C(O)[C@@H](O)[C@@H]1O (some centres unmarked) [Substrate 26]
α-L-Fucosidase
  i, value of electrochemical assay: 25.2 ± 2.9 10^−8 A

## O=C(O)C1O[C@@H](Oc2ccc(CO[C@@H]3OC(CO)[C@@H](O)[C@H](O)C3O)cc2)C(O)[C@@H](O)[C@@H]1O (stereo partly drawn) [Substrate 22, 1-(4-Hydroxymethylphenyl)-β-D-glucopyronuronic acid-1-α/β-D-glucopyranoside]
β-Glucuronidase
  i, value of electrochemical assay: 65.1 ± 4.6 10^−8 A
α-L-Fucosidase
  i, value of electrochemical assay: 9.7 ± 3.5 10^−8 A
α-Mannosidase
  i, value of electrochemical assay: 12.3 ± 1.2 10^−8 A
